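Results reflect a 48-hour exposure of cells in 96-well plates to compound at five concentrations. Abbreviation: GI50, concentration required for 50% inhibition of growth.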 Calls of active or inactive are those of the source. No stated cut-off is given here; in the data, active = GI50 up to about 1.1 µM and inactive = higher.
Tests used:
Test in all cases: DTP human tumour cell line panel, 48 h
786-0 = system: 786-0
A498 = system: A498
A549 = system: A549
ACHN = system: ACHN
CAKI-1 = system: CAKI-1
CCRF-CEM = system: CCRF-CEM
COLO 205 = system: COLO 205
DLD-1 = system: DLD-1
DMS-273 = system: DMS-273
EKVX = system: EKVX
HCC 2998 = system: HCC 2998
HCT-116 = system: HCT-116
HL-60 = system: HL-60
HOP-62 = system: HOP-62
HT-29 = system: HT-29
IGROV-1 = system: IGROV-1
K562 = system: K562
KM-20L2 = system: KM-20L2
KM12 = system: KM12
LOX IMVI = system: LOX IMVI
LXFL 529 = system: LXFL 529
M14 = system: M14
M19-MEL = system: M19-MEL
MOLT-4 = system: MOLT-4
Malme-3M = system: Malme-3M
NCI-H226 = system: NCI-H226
NCI-H23 = system: NCI-H23
NCI-H460 = system: NCI-H460
NCI-H522 = system: NCI-H522
OVCAR-3 = system: OVCAR-3
OVCAR-4 = system: OVCAR-4
OVCAR-5 = system: OVCAR-5
OVCAR-8 = system: OVCAR-8
RXF 393 = system: RXF 393
RXF 631 = system: RXF 631
SF-268 = system: SF-268
SF-295 = system: SF-295
SF-539 = system: SF-539
SK-MEL-28 = system: SK-MEL-28
SK-MEL-2 = system: SK-MEL-2
SK-MEL-5 = system: SK-MEL-5
SK-OV-3 = system: SK-OV-3
SN12C = system: SN12C
SNB-19 = system: SNB-19
SNB-75 = system: SNB-75
SNB-78 = system: SNB-78
SR = system: SR
SW-620 = system: SW-620
TK-10 = system: TK-10
U-251 = system: U-251
UACC-257 = system: UACC-257
UACC-62 = system: UACC-62
UO-31 = system: UO-31
XF498 = system: XF498
DMS-114 = system: DMS-114
HCT-15 = system: HCT-15
HOP-18 = system: HOP-18
HOP-92 = system: HOP-92
RPMI-8226 = system: RPMI-8226
BT-549 = system: BT-549
DU-145 = system: DU-145
Hs-578T = system: Hs-578T
MCF7 = system: MCF7
MDA-MB-435 = system: MDA-MB-435
MDA-N = system: MDA-N
NCI/ADR-RES = system: NCI/ADR-RES
PC-3 = system: PC-3
T47D = system: T47D

Measured: GI50

COc1ccc(OC)c2[s+]snc12
inactive: 786-0 > 100 µM | A498 > 100 µM | A549 40.1 µM | ACHN 91.2 µM | CAKI-1 > 100 µM | CCRF-CEM 36.1 µM | COLO 205 > 100 µM | DLD-1 49.5 µM | DMS-273 > 100 µM | EKVX > 100 µM | HCC 2998 > 100 µM | HCT-116 57.7 µM | HL-60 33.3 µM | HOP-62 > 100 µM | HT-29 > 100 µM | IGROV-1 > 100 µM | K562 34.5 µM | KM-20L2 > 100 µM | KM12 38.6 µM | LOX IMVI 35.6 µM | LXFL 529 35.6 µM | M14 63.2 µM | M19-MEL 15.8 µM | MOLT-4 70.8 µM | Malme-3M > 100 µM | NCI-H226 > 100 µM | NCI-H23 75.2 µM | NCI-H460 36.6 µM | NCI-H522 47.8 µM | OVCAR-3 34.4 µM | OVCAR-4 60.4 µM | OVCAR-5 > 100 µM | OVCAR-8 31.7 µM | RXF 393 72.4 µM | RXF 631 > 100 µM | SF-268 52.6 µM | SF-295 55.7 µM | SF-539 21.4 µM | SK-MEL-28 83.8 µM | SK-MEL-2 33.8 µM | SK-MEL-5 19 µM | SK-OV-3 > 100 µM | SN12C > 100 µM | SNB-19 65.8 µM | SNB-75 93.5 µM | SNB-78 > 100 µM | SR 64.9 µM | SW-620 68.2 µM | TK-10 > 100 µM | U-251 28 µM | UACC-257 27.1 µM | UACC-62 26.6 µM | UO-31 29 µM | XF498 45.3 µM

O=C1/C(=C\c2ccccc2)C2/C(=C\c3ccccc3)C(=O)/C(=C\c3ccccc3)C2/C1=C\c1ccccc1 (stereo not drawn)
1.32 µM: HCT-15
active: CCRF-CEM 0.34 µM | DMS-273 0.964 µM | HL-60 0.608 µM | K562 0.565 µM | LOX IMVI 0.316 µM | LXFL 529 0.681 µM | MOLT-4 0.437 µM | NCI-H522 0.592 µM | OVCAR-8 0.412 µM | RPMI-8226 0.336 µM
inactive: 786-0 1.22 µM | A549 2.48 µM | ACHN 2.29 µM | CAKI-1 2.67 µM | COLO 205 1.52 µM | DLD-1 1.22 µM | DMS-114 1.73 µM | EKVX 3.89 µM | HCC 2998 1.29 µM | HOP-18 48 µM | HOP-62 2.4 µM | HOP-92 1.69 µM | HT-29 1.34 µM | IGROV-1 2.01 µM | KM-20L2 1.78 µM | KM12 1.42 µM | M14 1.43 µM | M19-MEL 1.53 µM | Malme-3M 1.77 µM | NCI-H23 1.62 µM | NCI-H460 1.9 µM | OVCAR-3 1.73 µM | OVCAR-4 1.21 µM | OVCAR-5 1.41 µM | RXF 393 1.53 µM | RXF 631 3.12 µM | SF-268 2.58 µM | SF-295 2.07 µM | SF-539 2.35 µM | SK-MEL-28 2.18 µM | SK-MEL-2 1.81 µM | SK-MEL-5 1.9 µM | SK-OV-3 19.7 µM | SN12C 2.01 µM | SNB-75 17.3 µM | SW-620 1.55 µM | TK-10 3.87 µM | U-251 1.17 µM | UACC-257 1.79 µM | UACC-62 1.9 µM | UO-31 1.7 µM

CC(=O)OCC1OC(n2c(=S)n(-c3ccc([N+](=O)[O-])cc3)c(=O)c3ccccc32)C(OC(C)=O)C(OC(C)=O)C1OC(C)=O (stereo not drawn)
29.3 µM: HCT-15
inactive: 786-0 15.3 µM | A498 25.5 µM | BT-549 2.69 µM | COLO 205 27.5 µM | DMS-273 21.9 µM | DU-145 24.9 µM | HOP-18 13.4 µM | HOP-62 21.6 µM | HOP-92 25.5 µM | HT-29 21 µM | Hs-578T 4.46 µM | KM-20L2 28.3 µM | LOX IMVI 13.2 µM | MCF7 16.7 µM | MDA-MB-435 27 µM | MDA-N 27.7 µM | MOLT-4 8.22 µM | Malme-3M 15.2 µM | NCI-H23 21.3 µM | NCI-H460 21.7 µM | NCI-H522 15.4 µM | NCI/ADR-RES 30.7 µM | OVCAR-3 17.1 µM | OVCAR-4 20.8 µM | OVCAR-8 20.1 µM | PC-3 15.8 µM | RXF 631 19.2 µM | SF-268 18.5 µM | SF-295 23.3 µM | SF-539 14.3 µM | SK-OV-3 23.3 µM | SN12C 19.1 µM | SNB-19 19.9 µM | T47D 17.3 µM | U-251 18.4 µM | UACC-62 15.7 µM
